Results from US7241776B2, “Cyanoamidine P2X7 antagonists for the treatment of pain” (Abbott Laboratories, priority 2004, dated 2007).

Work on `Cc1ccccc1C(=NC#N)NC(NC(=O)Cc1ccc(Cl)cc1)C(C)(C)C` (stereo not drawn) [Example 19, 2-(4-chlorophenyl)-N-(1-{[(cyanoimino)(2-methylphenyl)methyl]amino}-2,2-dimethylpropyl)acetamide] yielded a melting point of 109 to 110 °C.
Work on `COc1ccc(CC(=O)NC(NC(Cc2cccnc2C)=NC#N)C(C)(C)C)cc1OC` (stereo not drawn) [Example 21, N-(1-{[N-cyano-2-(2-methylpyridin-3-yl)ethanimidoyl]amino}-2,2-dimethylpropyl)-2-(3,4-dimethoxyphenyl)acetamide] yielded a melting point of 164 to 165 °C.
Compound `Cc1ccccc1CC(=NC#N)NC(NC(=O)Cc1ccc(C#N)cc1)C(C)(C)C` (stereo not drawn) [Example 6, N-(1-{[N-cyano-2-(2-methylphenyl)ethanimidoyl]amino}-2,2-dimethylpropyl)-2-(4-cyanophenyl)acetamide] has a melting point of 199 to 201 °C.
With `Cc1ccccc1CC(=NC#N)NC(NC(=O)Cc1ccc2ncccc2c1)C(C)(C)C` (stereo not drawn) [Example 10, N-(1-{[N-cyano-2-(2-methylphenyl)ethanimidoyl]amino}-2,2-dimethylpropyl)-2-quinolin-6-ylacetamide] the melting point was 172 to 173 °C.
`COc1ccc(CC(=O)NC(NC(Cc2ccccc2C)=NC#N)C(C)(C)C)cc1` (stereo not drawn) [Example 4, N-(1-{[N-cyano-2-(2-methylphenyl)ethanimidoyl]amino}-2,2-dimethylpropyl)-2-(4-methoxyphenyl)acetamide] showed a melting point of 199 to 201 °C.
`Cc1ccccc1CC(=NC#N)NC(NC(=O)Cc1ccc2c(c1)OCCO2)C(C)(C)C` (stereo not drawn) [Example 7, N-(1-{[N-cyano-2-(2-methylphenyl)ethanimidoyl]amino}-2,2-dimethylpropyl)-2-(2,3-dihydro-1,4-benzodioxin-6-yl)acetamide] showed a melting point of 180 to 181 °C.
Compound `Cc1ccccc1CC(=NC#N)NC(NC(=O)Cc1ccc2c(c1)OCO2)C(C)(C)C` (stereo not drawn) [Example 5, 2-(1,3-benzodioxol-5-yl)-N-(1-{[N-cyano-2-(2-methylphenyl)ethanimidoyl]amino}-2,2-dimethylpropyl)acetamide] has a melting point of 167 to 169 °C.
With `Cc1ccccc1CC(=NC#N)NC(NC(=O)CCCc1cccs1)C(C)(C)C` (stereo not drawn) [Example 12, N-(1-{[N-cyano-2-(2-methylphenyl)ethanimidoyl]amino}-2,2-dimethylpropyl)-4-thien-2-ylbutanamide] the melting point was 154 to 155 °C.
Work on `Cc1ncccc1CC(=NC#N)NC(NC(=O)Cc1ccc(Cl)cc1)C(C)(C)C` (stereo not drawn) [Example 20, 2-(4-chlorophenyl)-N-(1-{[N-cyano-2-(2-methylpyridin-3-yl)ethanimidoyl]amino}-2,2-dimethylpropyl)acetamide] yielded a melting point of 118 to 119 °C.
In the case of `COc1ccc(CC(=O)NC(NC(=NC#N)c2cccc3ncccc23)C(C)(C)C)cc1OC` (stereo not drawn) [Example 24, N-(1-{[(cyanoimino)(quinolin-5-yl)methyl]amino}-2,2-dimethylpropyl)-2-(3,4-dimethoxyphenyl)acetamide], the melting point was 203 to 205 °C.
In the case of `Cc1ccccc1CC(=NC#N)NC(NC(=O)Cc1ccc(Cl)cc1)C(C)(C)C` (stereo not drawn) [Example 2, 2-(4-chlorophenyl)-N-(1-{[N-cyano-2-(2-methylphenyl)ethanimidoyl]amino}-2,2-dimethylpropyl)acetamide], the melting point was 183 to 185 °C.
With `Cc1ccccc1CC(=NC#N)NC(NC(=O)Cc1ccccc1)C(C)(C)C` (stereo not drawn) [Example 1, N-(1-{[N-cyano-2-(2-methylphenyl)ethanimidoyl]amino}-2,2-dimethylpropyl)-2-phenylacetamide] the melting point was 182 to 183 °C.
For `Cc1ncccc1CC(=NC#N)N[C@@H]1CCCc2ccccc21` [Example 58, N′-cyano-2-(2-methylpyridin-3-yl)-N-[(1R)-1,2,3,4-tetrahydronaphthalen-1-yl]ethanimidamide], the melting point was 193 to 194 °C.
With `N#CN=C(Cc1ccccc1F)N[C@@H]1CCc2ccccc21` [Example 50, N′-cyano-N-[(1R)-2,3-dihydro-1H-inden-1-yl]-2-(2-fluorophenyl)ethanimidamide] the melting point was 141 to 142 °C.
With `CC(C)(C)C(NC(=O)Cc1ccc(Cl)cc1)NC(Cc1cccc2ncccc12)=NC#N` (stereo not drawn) [Example 23, 2-(4-chlorophenyl)-N-(1-{[N-cyano-2-quinolin-5-ylethanimidoyl]amino}-2,2-dimethylpropyl)acetamide] the melting point was 186 to 188 °C.
Work on `Cc1ccccc1CC(=NC#N)NC(NC(=O)Cc1ccc2cccnc2c1)C(C)(C)C` (stereo not drawn) [Example 11, N-(1-{[N-cyano-2-(2-methylphenyl)ethanimidoyl]amino}-2,2-dimethylpropyl)-2-quinolin-7-ylacetamide] yielded a melting point of 165 to 166 °C.
For `CCSc1ccc(CC(=O)NC(NC(Cc2ccccc2C)=NC#N)C(C)(C)C)cc1` (stereo not drawn) [Example 14, N-(1-{[N-cyano-2-(2-methylphenyl)ethanimidoyl]amino}-2,2-dimethylpropyl)-2-[4-(ethylthio)phenyl]acetamide], the melting point was 196 to 198 °C.
Work on `Cc1ccccc1CC(=NC#N)NC(NC(=O)Cc1cccnc1)C(C)(C)C` (stereo not drawn) [Example 18, N-(1-{[N-cyano-2-(2-methylphenyl)ethanimidoyl]amino}-2,2-dimethylpropyl)-2-pyridin-3-ylacetamide] yielded a melting point of 84 to 86 °C.
In the case of `Cc1ccccc1CC(=NC#N)NC(NC(=O)Cc1ccc(F)c(F)c1)C(C)(C)C` (stereo not drawn) [Example 13, N-(1-{[N-cyano-2-(2-methylphenyl)ethanimidoyl]amino}-2,2-dimethylpropyl)-2-(3,4-difluorophenyl)acetamide], the melting point was 178 to 179 °C.
`Cc1ccccc1CC(=NC#N)NC(NC(=O)CF)C(C)(C)C` (stereo not drawn) showed a melting point of 151 to 152 °C.
Compound `COc1ccc(CCCC(=O)NC(NC(Cc2ccccc2C)=NC#N)C(C)(C)C)cc1` (stereo not drawn) [Example 16, N-(1-{[N-cyano-2-(2-methylphenyl)ethanimidoyl]amino}-2,2-dimethylpropyl)-4-(4-methoxyphenyl)butanamide] has a melting point of 171 to 172 °C.
In the case of `COc1ccc(CCC(C)NC(Cc2ccccc2C)=NC#N)cc1` (stereo not drawn) [Example 35, N′-cyano-N-[3-(4-methoxyphenyl)-1-methylpropyl]-2-(2-methylphenyl)ethanimidamide], the melting point was 103 to 104 °C.
`Cc1ccccc1CC(=NC#N)NC(NC(=O)Cc1cccc2ccccc12)C(C)(C)C` (stereo not drawn) [Example 9, N-(1-{[N-cyano-2-(2-methylphenyl)ethanimidoyl]amino}-2,2-dimethylpropyl)-2-(1-naphthyl)acetamide] gave a melting point of 97 to 100 °C.
Compound `CSc1ccc(CC(=O)NC(NC(Cc2ccccc2C)=NC#N)C(C)(C)C)cc1` (stereo not drawn) [Example 15, N-(1-{[N-cyano-2-(2-methylphenyl)ethanimidoyl]amino}-2,2-dimethylpropyl)-2-[4-(methylthio)phenyl]acetamide] has a melting point of 201 to 202 °C.
In the case of `Cc1ccccc1CC(=NC#N)NC(NC(=O)CCCCc1ccccc1)C(C)(C)C` (stereo not drawn) [Example 17, N-(1-{[N-cyano-2-(2-methylphenyl)ethanimidoyl]amino}-2,2-dimethylpropyl)-5-phenylpentanamide], the melting point was 151 to 152 °C.
`CC[C@@H](NC(Cc1cccnc1C)=NC#N)c1ccccc1` [Example 57, N′-cyano-2-(2-methylpyridin-3-yl)-N-[(1R)-1-phenylpropyl]ethanimidamide] showed a melting point of 52 to 54 °C.
For `COc1ccc(CC(=O)NC(NC(Cc2ccccc2C)=NC#N)C(C)(C)C)cc1OC` (stereo not drawn) [Example 3, N-(1-{[N-cyano-2-(2-methylphenyl)ethanimidoyl]amino}-2,2-dimethylpropyl)-2-(3,4-dimethoxyphenyl)acetamide], the melting point was 153 to 155 °C.
